Results taken from patent publication US20230027066A1 (Urovant Sciences GmbH, priority 2019, published 2023).

Tested on: men and women with overactive bladder
Assay: Phase 3 study of vibegron 75 mg vs placebo and tolterodine ER 4 mg, 12 weeks, efficacy (voiding and urine volume diary)
Assay type: in vivo, human
Details: for Patients with at Least 75% Reduction in Total Incontinence, Adjusted (%) / Patients with at Least 75% Reduction in Total Incontinence, Adjusted n / Patients with at Least 75% Reduction in Total Incontinence, Unadjusted (%) / Patients with at Least 75% Reduction in Total Incontinence, Unadjusted n / Total Incontinence 75% responders, Active - Placebo CMH Difference: FAS-I
Description: Enrollment of patients included individuals with OAB Wet (those with UUI, the involuntary loss of urine accompanied by urgency) and OAB Dry (those without UUI). A total of 1,518 patients were randomized across 215 study sites into one of three groups for a 12-week treatment period.
The study consisted of a Screening Period (1 to 5 weeks), a single-blind Run-in Period (2 weeks), a randomized double-blind Treatment Period (12 weeks), and a Follow-up Period (4 weeks).
Tolterodine ER 4 mg was the active control. […] Between the Baseline and Week 12 Visits, patients had study assessments at Week 4 and Week 8.
The Patient Voiding Diary was used by participants (via the eDiary or paper Diary) to record the frequency of daily OAB symptoms including all micturitions, urgency, incontinence, and main reason for incontinence by selecting the respective box for each symptom occurring during the course of a given day and night.
Urine volume data were collected separately by patients using the Urine Volume component of the eDiary, or the paper Urine Volume Chart. The Urine Volume Chart is a tool used in clinical practice and clinical investigation to assess voiding functions over a 24-hour period and is regarded as a useful instrument in the investigation of patients with voiding symptoms. Urine volume may be collected during any one (1) of the 7 Diary Days prior to the visit, and it should be recorded for ˜24 hours starting from the time the patient gets up for the day and continues until the time the patient gets up for the day on the next day.
For the purpose of this study, the number of micturitions was defined as the number of times a patient has voided in the toilet as indicated on the Patient Voiding Diary. Average daily micturitions were calculated using the daily entries in the Patient Voiding Diary, which was completed over the 7 days prior to each study visit. Average daily number of micturitions were calculated as the total number of micturitions that occurred on a Complete Diary Day divided by the number of Complete Diary Days in the Patient Voiding Diary. A complete diary day required confirmation by the patient in the Patient Voiding Diary that all voids and leakages had been recorded for the diary day. Baseline was defined as the average number of micturitions occurring during the last evaluable diary prior to the Baseline Visit.
The number of UUI episodes was defined as the number of times a patient had checked “urge” as the reason for accidental urine leakage. Average daily UUI episodes at each study visit were calculated in the same manner as described above for the micturition endpoint. The UUI endpoint were analyzed using only OAB Wet patients.
For the analysis of the co-primary endpoints (change from baseline in average number of daily micturitions at Week 12 and change from baseline in average number of daily urge urinary incontinence episodes at Week 12, and placebo adjustment of each), a mixed model for repeated measure (MMRM) with restricted maximum likelihood estimation was used. This model corrects for dropout and accounts for the fact that measurements taken on the same patient over time tend to be correlated by using all available information on patients within the same covariate set to derive an estimate of the treatment effect for a dropout-free population. The analysis model for each efficacy endpoint includes terms for treatment, visit, OAB Type (Wet vs Dry), Sex (Female vs Male), Region (US vs Rest of World), baseline score, and interaction of visit by treatment.
Primary inferences were drawn from treatment differences for the changes from baseline derived from the MMRM models at Week 12. As part of secondary objectives, the treatment differences for each post baseline visit were also derived using the same MMRM model. […]

[1] = subjects with prior ACH use, vibegron 75 mg, Week 12
[2] = vibegron 75 mg or tolterodine ER 4 mg
[3] = vibegron 75 mg or tolterodine ER 4 mg once daily
[4] = vibegron 75 mg or tolterodine ER 4 mg once daily, OAB Wet
[5] = vibegron 75 mg or tolterodine ER 4 mg, OAB Wet

SMILES: O=C(Nc1ccc(C[C@@H]2CC[C@H]([C@H](O)c3ccccc3)N2)cc1)[C@@H]1CCc2nccc(=O)n21 [Vibegron, (6S)-N-[4-[[(2S,5R)−5-[(R)-hydroxy(phenyl)methyl]pyrrolidin−2-yl]methyl]phenyl]−4-oxo−7,8-dihydro−6H-pyrrolo[1,2-a]pyrimidine−6-carboxamide]
- UUI Episodes, change at Week 12, mean (SD) (Week 12, subpopulation Age ≥65 years): −1.94 (2.50)
- Daily Urgency, change at Week 12 (Week 12, subpopulation Age ≥65 years, posthoc analysis): −2.7
- Micturitions: Week 12 CFB Mean (descriptive statistics) (Week 12, ≥65 yrs): −2.10
- Patients with at Least 75% Reduction in Total Incontinence, Adjusted (%) (baseline to Week 2): 22.1%
- Patients with at Least 75% Reduction in Total Incontinence, Adjusted n (baseline to Week 2): 89
- Patients with at Least 75% Reduction in Total Incontinence, Unadjusted (%) (baseline to Week 2): 23.6%
- Patients with at Least 75% Reduction in Total Incontinence, Unadjusted n (baseline to Week 2): 95
- Total Incontinence 75% responders, Active - Placebo CMH Difference (baseline to Week 2): 9.3
- Patients with at Least 75% Reduction in Total Incontinence, Adjusted (%) (baseline to Week 4): 31.5%
- Patients with at Least 75% Reduction in Total Incontinence, Adjusted n (baseline to Week 4): 127
- Patients with at Least 75% Reduction in Total Incontinence, Unadjusted (%) (baseline to Week 4): 34.5%
- Patients with at Least 75% Reduction in Total Incontinence, Unadjusted n (baseline to Week 4): 139
- Total Incontinence 75% responders, Active - Placebo CMH Difference (baseline to Week 4): 11.8
- Patients with at Least 75% Reduction in Total Incontinence, Adjusted (%) (baseline to Week 8): 42.0%
- Patients with at Least 75% Reduction in Total Incontinence, Adjusted n (baseline to Week 8): 169
- Patients with at Least 75% Reduction in Total Incontinence, Unadjusted (%) (baseline to Week 8): 43.7%
- Patients with at Least 75% Reduction in Total Incontinence, Unadjusted n (baseline to Week 8): 176
- Total Incontinence 75% responders, Active - Placebo CMH Difference (baseline to Week 8): 14.7
- Patients with at Least 75% Reduction in Total Incontinence, Adjusted (%) (baseline to Week 12): 47.3%
- Patients with at Least 75% Reduction in Total Incontinence, Adjusted n (baseline to Week 12): 191
- Patients with at Least 75% Reduction in Total Incontinence, Unadjusted (%) (baseline to Week 12): 50.1%
- Patients with at Least 75% Reduction in Total Incontinence, Unadjusted n (baseline to Week 12): 202
- Total Incontinence 75% responders, Active - Placebo CMH Difference (baseline to Week 12): 15.8
- UUI, Week 12 LS mean change from baseline (placebo adjusted) (95% CI) (subgroup Age <65 years, vibegron 75 mg or tolterodine ER 4 mg): −0.5 (−0.9 to −0.1)
- UUI, Week 12 LS mean change from baseline (placebo adjusted) (95% CI) (subgroup Age ≥65 years, vibegron 75 mg or tolterodine ER 4 mg): −0.8 (−1.2 to −0.3)
- UUI, Week 12 LS mean change from baseline (placebo adjusted) (95% CI) (subgroup Age ≥75 years (posthoc analysis), vibegron 75 mg or tolterodine ER 4 mg): −1.6 (−2.4 to −0.8)
- UUI, Week 12 LS mean change from baseline (placebo adjusted) (95% CI) (subgroup Females, vibegron 75 mg or tolterodine ER 4 mg): −0.7 (−1.0 to −0.4)
- UUI, Week 12 LS mean change from baseline (placebo adjusted) (95% CI) (subgroup Males, vibegron 75 mg or tolterodine ER 4 mg): −0.1 (−0.9 to 0.8)
- UUI, Week 12 LS mean change from baseline (placebo adjusted) (95% CI) (subgroup Non-White, vibegron 75 mg or tolterodine ER 4 mg): 0.0 (−0.6 to 0.7)
- UUI, Week 12 LS mean change from baseline (placebo adjusted) (95% CI) (subgroup Region: Non-US, vibegron 75 mg or tolterodine ER 4 mg): −1.1 (−1.8 to −0.3)
- UUI, Week 12 LS mean change from baseline (placebo adjusted) (95% CI) (subgroup Region: US, vibegron 75 mg or tolterodine ER 4 mg): −0.5 (−0.8 to −0.2)
- UUI, Week 12 LS mean change from baseline (placebo adjusted) (95% CI) (subgroup White, vibegron 75 mg or tolterodine ER 4 mg): −0.8 (−1.1 to −0.4)
- decrease in average number of UUI episodes in 24 hours, times the decrease with placebo [1]: about 1.75 times
- decrease in average number of micturitions in 24 hours, more than the decrease with placebo [1]: about 0.7
- decrease in average number of micturitions in 24 hours, more than the decrease with placebo (subjects with prior B3 use, vibegron 75 mg, Week 12): about 2.9
- total daily incontinence, placebo adjusted, week 2 (vibegron 75 mg): −0.7
- average volume voided, placebo-adjusted mean change from baseline, week 12 [2]: 21.2 mL
- placebo-adjusted mean total daily incontinence episodes, week 12 [2]: −0.7 episodes
- proportion of patients (UUI responders) with 75% or more reduction in daily UUI episodes, week 12 [2]: 49.3%
- Micturitions, active-placebo LS mean difference, Week 2 [3]: −0.5
- Micturitions, active-placebo LS mean difference, Week 4 [3]: −0.6
- Micturitions, active-placebo LS mean difference, Week 8 [3]: −0.6
- Micturitions, active-placebo LS mean difference, Week 12 [3]: −0.5
- Micturitions, average daily number, Week 2 mean [3]: 10.18
- Micturitions, average daily number, Week 4 mean [3]: 9.84
- Micturitions, average daily number, Week 8 mean [3]: 9.53
- Micturitions, average daily number, Week 12 mean [3]: 9.32
- Micturitions, change from baseline LS mean, Week 2 [3]: −0.8
- Micturitions, change from baseline LS mean, Week 4 [3]: −1.1
- Micturitions, change from baseline LS mean, Week 8 [3]: −1.4
- Micturitions, change from baseline LS mean, Week 12 [3]: −1.8
- UUI episodes, active-placebo LS mean difference, Week 2 [4]: −0.6
- UUI episodes, active-placebo LS mean difference, Week 4 [4]: −0.7
- UUI episodes, active-placebo LS mean difference, Week 8 [4]: −0.6
- UUI episodes, average daily number, Week 2 mean [4]: 2.03
- UUI episodes, average daily number, Week 4 mean [4]: 1.77
- UUI episodes, average daily number, Week 8 mean [4]: 1.65
- UUI episodes, average daily number, Week 12 mean [4]: 1.46
- UUI episodes, change from baseline LS mean, Week 2 [4]: −1.4
- UUI episodes, change from baseline LS mean, Week 4 [4]: −1.7
- UUI episodes, change from baseline LS mean, Week 8 [4]: −1.8
- UUI episodes, change from baseline LS mean, Week 12 [4]: −2.0
- Estimated incidence of subjects with 75% decrease from baseline in UUI episodes, Week 2 [5]: 24.3
- Estimated incidence of subjects with 75% decrease from baseline in UUI episodes, Week 4 [5]: 26.6
- Estimated incidence of subjects with 75% decrease from baseline in UUI episodes, Week 8 [5]: 41.3
- Estimated incidence of subjects with 75% decrease from baseline in UUI episodes, Week 12 [5]: 52.7
- First 75% reduction in UUI episodes, Events/Censored, Week 2 [5]: 98/305
- First 75% reduction in UUI episodes, Events/Censored, Week 4 [5]: 107/296
- First 75% reduction in UUI episodes, Events/Censored, Week 8 [5]: 166/237
- First 75% reduction in UUI episodes, Events/Censored, Week 12 [5]: 210/193
- Overall time to first 75% decrease in UUI episodes, 25th percentile [5]: 3.9 weeks
- Overall time to first 75% decrease in UUI episodes, 75th percentile [5]: 13.1 weeks
- Overall time to first 75% decrease in UUI episodes, median (95% CI) [5]: 8.4 (8.1 to 12.1) weeks
- Time to first 75% decrease in UUI episodes, Events/Censored (overall) [5]: 239/164
- total daily incontinence, mean change from baseline (reduction) (vibegron 75 mg, after 12 weeks): 2.3 episodes
- statistically significant onset of action, reduction in urge urinary incontinence (UUI) (vibegron 75 mg/day, FIG. 4): 2 weeks
- statistically significant onset of action, reduction in micturitions (vibegron 75 mg/day, FIG. 5): 2 weeks
- statistically significant onset of action, reduction in urgency episodes (vibegron 75 mg/day, FIG. 6): 2 weeks
- statistically significant onset of action, urge incontinence responder rate (vibegron 75 mg/day, FIG. 7): 2 weeks
- statistically significant onset of action, reductions in total incontinence episodes (vibegron 75 mg/day, FIG. 9): 2 weeks
- statistically significant onset of action, improvement in volume voided (vibegron 75 mg/day, FIG. 10): 2 weeks
